# Test results taken from patent US20260103473A1 (Avanc Pharmaceutical Co., Ltd., priority 2022, published 2026).
# Structures can show the parent of a compound that is named as a salt.
# Legend:
# Format in all cases: physicochemical
# [1] = Hygroscopicity of salts of the compound of formula (I) (weight gain at 95% humidity); conditions: humidity 50% raised to 95% in increments of 15%, 60 min each
# Procedure: The compound of formula (I) was placed in a humid environment, wherein the initial humidity of the environment was 50%, and the humidity was increased to 95% in increments of 15%. The maintenance time for each humidity gradient was 60 min. After the ambient humidity was maintained at 95% for 60 min, the weight gain of each salt form was tested to determine the hygroscopicity of the corresponding salt form.
# According to the test procedures of Test Example 2, the solubility of the monocitrate salt and dicitrate salt of the compound of formula (I) were respectively tested.
# [2] = Moisture absorption study of crystal forms by dynamic vapor sorption (DVS) with XRPD afterwards; conditions: for weight increase at 80% RH during the adsorption process / weight increase at 95% RH: DVS, with reference to the mass at 50% RH; for XRPD pattern after DVS testing: after humidity cycle 50%-95%-50%
# Procedure: Dynamic vapor sorption and desorption analysis of crystal forms were performed using DVS Intrinsic (SMS, UK) to evaluate the hygroscopicity of the crystal forms. The gradient mode was used for the test. The humidity change was 50%-95%-50%. The humidity change amount of each gradient was 15%. The gradient endpoint was determined in the dm/dt manner, with dm/dt less than 0.002% and maintained for 10 minutes as the gradient endpoint, or the maximum maintenance time of each gradient was 60 min. After the test was completed, XRPD analysis was performed on the sample to confirm whether the solid form changed.
# [3] = Stability study of crystal forms (XRPD characterization); conditions: high temperature (60° C.), high humidity (25° C./92.5% RH), illumination (25° C./4500 Lux), accelerated (40° C./75% RH); up to 15 days
# Procedure: Stability studies under conditions of high temperature (60° C.), high humidity (25° C./92.5% RH), illumination (25° C./4500 Lux), and accelerated condition (40° C./75% RH) were performed on the crystal forms of the compound of formula (I). Samples were taken for XRPD characterization on the 7th and 15th days respectively.
# The crystal form G was stored at room temperature for 1 day.
# [4] = Dynamic solubility test in biological media and water; conditions: for solubility at 0.5 h / solubility at 2 h / solubility at 24 h: thermodynamic from solid
# Excerpt: Wherein, FaSSIF could be used to simulate the intestinal fluid in the small intestine in the human pre-prandial hunger state; FeSSIF could be used to simulate the intestinal fluid in the small intestine in the human post-prandial satiety state; FaSSGF could be used to simulate the stomach in the empty stomach in the human hunger state.
# [5] = Description of crystal form A: hygroscopicity and solubility in solvents
# [6] = Test of solubility of salts of the compound of formula (I) in water; conditions: room temperature, Table 10; for Solution state: after addition of water; for solubility: thermodynamic from solid, water, monocitrate vs dicitrate
# Procedure: About 4-20 mg of salt of the compound of formula (I) was weighed, and the salt was added to the EP tube. A certain amount of solvent was added successively at room temperature. The solution was stirred, and it was observed whether the solid was completely dissolved. If the solid had not been completely dissolved after 10.0 mL of solvent was added, the experiment was stopped. The solubility of the compound in the solvent was estimated based on the volume of solvent used when the solid was completely dissolved.
# [7] = monocitrate vs dicitrate, Table 11
compound,measurement,setting,value
L-Tartrate,Weight gain at 95% humidity,[1]; Table 9,8.18%
CN1CCN(C2CCN(c3ccc(Nc4ncc5sc(C(=O)N(C)C)c(C6CCCC6)c5n4)nc3)CC2)CC1 [crystal form A],weight increase at 80% RH during the adsorption process,[2],0.25%
same,weight increase at 95% RH,[2],0.64%
same,XRPD pattern after DVS testing,[2],did not change significantly
same,crystal form transformation by XRPD,[3],without any crystal form transformation occurring
same,XRPD of the remaining solid,[4]; FaSSGF,No solid remained
same,Final pH,"[4]; FaSSGF, initial pH 1.6",2.5
same,XRPD of the remaining solid,[4]; FaSSIF,No solid remained
same,Final pH,"[4]; FaSSIF, initial pH 6.5",4.3
same,XRPD of the remaining solid,[4]; FeSSIF,No solid remained
same,Final pH,"[4]; FeSSIF, initial pH 5.0",4.6
same,Final pH,[4]; Water,3.8
same,XRPD of the remaining solid,[4]; Water,No solid remained
same,solubility at 0.5 h,"[4]; fassgf or other biorelevant, FaSSGF, pH 1.6, 0.5 h",> 5470 µg/mL
same,solubility at 2 h,"[4]; fassgf or other biorelevant, FaSSGF, pH 1.6, 2 h",> 5480 µg/mL
same,solubility at 24 h,"[4]; fassgf or other biorelevant, FaSSGF, pH 1.6, 24 h",> 5380 µg/mL
same,solution state after suspension for 24 h,"[4]; four media (FaSSIF, FeSSIF, FaSSGF, water)",still clear
same,time to dissolve,"[4]; suspended in four media (FaSSIF, FeSSIF, FaSSGF, water)",≤ 0.5 h
same,solubility at 0.5 h,"[4]; FaSSIF, pH 6.5, 0.5 h",> 5150 µg/mL
same,solubility at 2 h,"[4]; FaSSIF, pH 6.5, 2 h",> 5110 µg/mL
same,solubility at 24 h,"[4]; FaSSIF, pH 6.5, 24 h",> 5180 µg/mL
same,solubility at 0.5 h,"[4]; FeSSIF, pH 5.0, 0.5 h",> 5460 µg/mL
same,solubility at 2 h,"[4]; FeSSIF, pH 5.0, 2 h",> 5480 µg/mL
same,solubility at 24 h,"[4]; FeSSIF, pH 5.0, 24 h",> 5470 µg/mL
same,solubility at 0.5 h,"[4]; Water, 0.5 h",> 5540 µg/mL
same,solubility at 2 h,"[4]; Water, 2 h",> 5450 µg/mL
same,solubility at 24 h,"[4]; Water, 24 h",> 5480 µg/mL
same,hygroscopicity (description),[5],slightly hygroscopic
same,solubility (description),[5]; 0.1 mol/L hydrochloric acid solution,readily soluble
same,solubility (description),[5]; Water,readily soluble
same,solubility (description),[5]; acetic acid,readily soluble
same,solubility (description),[5]; ethanol,nearly insoluble
same,solubility (description),[5]; methanol,slightly soluble
CN1CCN(C2CCN(c3ccc(Nc4ncc5sc(C(=O)N(C)C)c(C6CCCC6)c5n4)nc3)CC2)CC1 [crystal form C],weight increase at 80% RH during the adsorption process,[2],0.42%
same,weight increase at 95% RH,[2],3.45%
same,XRPD pattern after DVS testing,[2],did not change significantly
same,crystal form transformation by XRPD,[3],did not undergo crystal form transformation
CN1CCN(C2CCN(c3ccc(Nc4ncc5sc(C(=O)N(C)C)c(C6CCCC6)c5n4)nc3)CC2)CC1 [crystal form B],weight increase at 80% RH during the adsorption process,[2],0.24%
same,weight increase at 95% RH,[2],0.69%
same,XRPD pattern after DVS testing,[2],did not change significantly
same,crystal form transformation by XRPD,[3],did not undergo crystal form transformation
CN1CCN(C2CCN(c3ccc(Nc4ncc5sc(C(=O)N(C)C)c(C6CCCC6)c5n4)nc3)CC2)CC1.O=C(O)CC(O)(CC(=O)O)C(=O)O [Monocitrate salt],Solution state,[6],clear
same,solubility,[6],> 33 mg/mL
same,Weight gain at 95% humidity,[1]; [7],3.45%
CN1CCN(C2CCN(c3ccc(Nc4ncc5sc(C(=O)N(C)C)c(C6CCCC6)c5n4)nc3)CC2)CC1 [crystal form D],weight increase at 80% RH during the adsorption process,[2],0.85%
same,weight increase at 95% RH,[2],4.45%
same,XRPD pattern after DVS testing,[2],did not change significantly
same,crystal form transformation by XRPD,[3],did not undergo significant crystal form transformation
CN1CCN(C2CCN(c3ccc(Nc4ncc5sc(C(=O)N(C)C)c(C6CCCC6)c5n4)nc3)CC2)CC1 [Dicitrate salt],Solution state,[6],clear
same,solubility,[6],> 33 mg/mL
same,Weight gain at 95% humidity,[1]; [7],0.64%
